Measurements: PubChem BioAssay AID330 (DTP/NCI, 2004)
Several values for one entry are separate records, joined by “and”; a condition that tells them apart may be missing. Identical values can stand only once. Toxic doses and inconclusive results are not listed. Peptide text beside a SMILES is read from it.

Tested on: P388 leukemia ip, CD2F1 mice, survival T/C
Experiment: NCI In Vivo Anticancer Drug Screen. Data for tumor model P388 Leukemia (intraperitoneal) in CD2F1 (CDF1) mice
Conditions: endpoint: median survival time, higher = longer survival
Outline: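 Mice carrying the transplanted tumor received test compound or vehicle. Survival was recorded in each group, and the value is the treated-group measurement divided by that of the vehicle-treated control group.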

[1] = dose: 50.0 mg/kg/injection, schedule: Q01DX005 (ip), vehicle: Klucel (hydroxypropylcellulose) (HPC)
[2] = dose: 100.0 mg/kg/injection, schedule: Q01DX005 (ip), vehicle: Klucel (hydroxypropylcellulose) (HPC)
[3] = dose: 200.0 mg/kg/injection, schedule: Q01DX005 (ip), vehicle: Klucel (hydroxypropylcellulose) (HPC)
[4] = dose: 60.0 mg/kg/injection, schedule: Q01DX005 (ip), vehicle: saline with Tween-80
[5] = dose: 120.0 mg/kg/injection, schedule: Q01DX005 (ip), vehicle: saline with Tween-80
[6] = dose: 240.0 mg/kg/injection, schedule: Q01DX005 (ip), vehicle: saline with Tween-80
[7] = dose: 50.0 mg/kg/injection, schedule: Q01DX009 (ip), vehicle: Klucel (hydroxypropylcellulose) (HPC)
[8] = dose: 50.0 mg/kg/injection, schedule: Q01DX009 (ip), vehicle: saline
[9] = dose: 100.0 mg/kg/injection, schedule: Q01DX009 (ip), vehicle: saline

## Cc1nc2sc3c(c2c2nncn12)CCCC3
[1]
  T/C: 103 % of control
[2]
  T/C: 97 % of control
[3]
  T/C: 97 % of control

## COc1ccc(-c2cn(-c3ccccc3)c3ncnc(N)c23)cc1
[4]
  T/C: 102 % of control
[5]
  T/C: 103 % of control
[6]
  T/C: 103 % of control

## Brc1ccc2nc3ccccc3c(SCCCCCCSc3c4ccccc4nc4ccc(Br)cc34)c2c1
dose: 60.0 mg/kg/injection, schedule: Q01DX005 (ip), vehicle: Klucel (hydroxypropylcellulose) (HPC)
  T/C: 87 % of control and 93 % of control
dose: 120.0 mg/kg/injection, schedule: Q01DX005 (ip), vehicle: Klucel (hydroxypropylcellulose) (HPC)
  T/C: 89 % of control
dose: 240.0 mg/kg/injection, schedule: Q01DX005 (ip), vehicle: Klucel (hydroxypropylcellulose) (HPC)
  T/C: 91 % of control

## O=C(O)Cc1cn2ccccc2n1
dose: 100.0 mg/kg/injection, schedule: Q01DX001 (ip), vehicle: Klucel (hydroxypropylcellulose) (HPC)
  T/C: 96 % of control
dose: 200.0 mg/kg/injection, schedule: Q01DX001 (ip), vehicle: Klucel (hydroxypropylcellulose) (HPC)
  T/C: 100 % of control
dose: 400.0 mg/kg/injection, schedule: Q01DX001 (ip), vehicle: Klucel (hydroxypropylcellulose) (HPC)
  T/C: 93 % of control

## Cn1cnc([N+](=O)[O-])c1Sc1ccncc1S(N)(=O)=O
[1]
  T/C: 118 % of control
[2]
  T/C: 102 % of control
[3]
  T/C: 108 % of control

## FC(F)(F)c1ccccc1N=Nc1c(-c2ccccc2)nn(C(=S)S)c1-c1ccccc1
dose: 100.0 mg/kg/injection, schedule: Q04DX002 (ip), vehicle: saline with Tween-80
  T/C: 93 % of control
dose: 200.0 mg/kg/injection, schedule: Q04DX002 (ip), vehicle: saline with Tween-80
  T/C: 91 % of control
dose: 400.0 mg/kg/injection, schedule: Q04DX002 (ip), vehicle: saline with Tween-80
  T/C: 100 % of control

## NS(=O)(=O)c1ccc(NC(=O)Nc2cc(C(F)(F)F)ccc2Cl)cc1
[4]
  T/C: 103 % of control
[5]
  T/C: 96 % of control
[6]
  T/C: 87 % of control

## Oc1cc2c(cc1C(c1ccc3c(c1)OCO3)N1CCN(C(c3ccc4c(c3)OCO4)c3cc4c(cc3O)OCO4)CC1)OCO2 (stereo not given)
[4]
  T/C: 89 % of control
[5]
  T/C: 87 % of control
[6]
  T/C: 89 % of control

## CCC(C)C(N)C(=O)O (stereo not given)
[7]
  T/C: 109 % of control
dose: 100.0 mg/kg/injection, schedule: Q01DX009 (ip), vehicle: Klucel (hydroxypropylcellulose) (HPC)
  T/C: 94 % of control
dose: 200.0 mg/kg/injection, schedule: Q01DX009 (ip), vehicle: Klucel (hydroxypropylcellulose) (HPC)
  T/C: 105 % of control

## CCN(Cc1c(C)[nH]c2ccc(N(C)C)cc2c1=O)Cc1c(C)[nH]c2ccc(N(C)C)cc2c1=O
[8]
  T/C: 101 % of control
[9]
  T/C: 101 % of control
dose: 200.0 mg/kg/injection, schedule: Q01DX009 (ip), vehicle: saline
  T/C: 106 % of control

## CS/C(=N\S(=O)(=O)c1ccccc1)NNC(=O)c1c(-c2c(Cl)cccc2Cl)noc1C
[4]
  T/C: 100 % of control
[5]
  T/C: 100 % of control
[6]
  T/C: 91 % of control

## Cn1c(=O)c2nc(-c3ccccc3)nnc2n(C)c1=O
dose: 100.0 mg/kg/injection, schedule: Q04DX003 (ip), vehicle: Klucel (hydroxypropylcellulose) (HPC)
  T/C: 102 % of control
dose: 200.0 mg/kg/injection, schedule: Q04DX003 (ip), vehicle: Klucel (hydroxypropylcellulose) (HPC)
  T/C: 103 % of control
dose: 400.0 mg/kg/injection, schedule: Q04DX003 (ip), vehicle: Klucel (hydroxypropylcellulose) (HPC)
  T/C: 115 % of control

## CN(C)CCC(=O)c1cccs1
[8]
  T/C: 107 % of control
[9]
  T/C: 105 % of control

## CNC(=O)OCc1c(COC(=O)NC)c2n(c1C)CCc1ccccc1-2
dose: 12.5 mg/kg/injection, schedule: Q01DX009 (ip), vehicle: distilled water + Tween-80
  T/C: 153 % of control

## CC(NC(=O)C(Cc1ccccc1)NC(=O)C(N)CCCN=C(N)N)C(=O)O (stereo not drawn) (H-Arg-Phe-Ala-OH; configuration not given here)
dose: 50.0 mg/kg/injection, schedule: Q01DX005 (ip), vehicle: saline
  T/C: 102 % of control
dose: 100.0 mg/kg/injection, schedule: Q01DX005 (ip), vehicle: saline
  T/C: 101 % of control
dose: 200.0 mg/kg/injection, schedule: Q01DX005 (ip), vehicle: saline
  T/C: 101 % of control

## CN(CCCCN(C)CCOS(C)(=O)=O)CCOS(C)(=O)=O
dose: 0.05 mg/kg/injection, schedule: Q01DX009 (ip), vehicle: saline
  T/C: 157 % of control
dose: 0.1 mg/kg/injection, schedule: Q01DX009 (ip), vehicle: saline
  T/C: 178 % of control
dose: 0.3 mg/kg/injection, schedule: Q01DX009 (ip), vehicle: saline
  T/C: 156 % of control
dose: 0.6 mg/kg/injection, schedule: Q01DX009 (ip), vehicle: saline
  T/C: 156 % of control
dose: 0.8 mg/kg/injection, schedule: Q04DX003 (ip), vehicle: saline
  T/C: 168 % of control
dose: 1.2 mg/kg/injection, schedule: Q04DX003 (ip), vehicle: saline
  T/C: 172 % of control
dose: 1.25 mg/kg/injection, schedule: Q01DX009 (ip), vehicle: saline
  T/C: 230 % of control
dose: 1.25 mg/kg/injection, schedule: Q04DX003 (ip), vehicle: saline with Tween-80
  T/C: 180 % of control
dose: 1.8 mg/kg/injection, schedule: Q04DX003 (ip), vehicle: saline
  T/C: 181 % of control
dose: 2.5 mg/kg/injection, schedule: Q04DX003 (ip), vehicle: saline with Tween-80
  T/C: 176 % of control
dose: 5.0 mg/kg/injection, schedule: Q04DX003 (ip), vehicle: saline with Tween-80
  T/C: 200 % of control
dose: 5.0 mg/kg/injection, schedule: Q04DX003 (ip), vehicle: saline
  T/C: 204 % of control
dose: 10.0 mg/kg/injection, schedule: Q04DX003 (ip), vehicle: saline
  T/C: 86 % of control

## COc1c(CO)c2c(c(OC)c1OC)-c1ccc(OC)c(=O)cc1[C@@H](NC(C)=O)CC2
dose: 25.0 mg/kg/injection, schedule: Q01DX009 (ip), vehicle: Klucel (hydroxypropylcellulose) (HPC)
  T/C: 160 % of control
[7]
  T/C: 185 % of control

## CC(C)Nc1nc(N)nc(N)n1
dose: 50.0 mg/kg/injection, schedule: Q01DX009 (ip), vehicle: saline with Tween-80
  T/C: 100 % of control
dose: 100.0 mg/kg/injection, schedule: Q01DX009 (ip), vehicle: saline with Tween-80
  T/C: 91 % of control
dose: 200.0 mg/kg/injection, schedule: Q01DX009 (ip), vehicle: saline with Tween-80
  T/C: 96 % of control
